# Non-standard residues stand in square brackets, D forms with d. Residues, ends and D or L forms follow the SMILES beside them.
# How the values were obtained:
# [1] = tested on: E. coli JM109(DE3); type: cell-based, Escherichia coli; conditions: JM109
# Outline: (§1)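 Peptide activity was measured by NCCLS M7-A4 broth dilution, mostly as microdilution with some macrodilution. Serial 2-fold dilutions, approximately 400-2 μg/ml stock range, were made in 5% DMSO/9% aq. sucrose. Overnight cultures were diluted 4000-fold to about 2.5×10^5 cfu/ml inoculum.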
# [2] = tested on: Bacillus cereus ATCC 11778; type: cell-based
# Outline: as §1
# [3] = tested on: Streptococcus pneumoniae (ATCC 6301); type: cell-based
# Outline: as §1
# [4] = tested on: E. faecium SP180; experiment: Time-killing curve, E. faecium SP180; type: cell-based, Enterococcus faecium; conditions: for time to kill effectively all bacteria / killing of bacteria: about 2 μg/ml, BHI broth
# Description: The speed at which several of the cyclic peptides of the invention kill E. coli JM 109 (DE3), Enterococcus faecium SP 180 and S. aureus (MRSA) (ATCC No. 33591 and 33592) was further tested at room temperature and/or at 37° C. A lower temperature tends to enrich the bacterial cultures for mature bacteria because the bacteria are not growing quickly. […] The presence or absence of immature bacteria in the culture may influence the rate at which the bacteria are killed, because immature bacteria tend to be more susceptible to many forms of antibiotics.
# FIGS. 11 and 12 illustrate the time course for killing E. faecium SP 180 with varying concentrations of KSKWLWLW (SEQ ID NO:12), at room temperature and at 37° C. Assays were performed in Brain Heart Infusion broth. As illustrated, somewhat shorter times and/or somewhat lower concentrations of this cyclic peptide are required to kill E. faecium SP180 at 37° C. than at room temperature. E. faecium SP180 is vancomycin resistant (vanA) and multiply resistant to several FDA approved antibiotics. […] This may be due to growth of a few survivors after the residual cyclic peptide within the culture has been exhausted because the amount of peptide employed in that assay was below the MIC value.
# [5] = tested on: vancomycin resistant E. faecium (VREF)(ATCC 51575); experiment: Mouse peritonitis model, VREF protection; type: in vivo, mice; parameters: PD50 VREF: unit not given here; conditions: for PD50 VREF: Table 12, male Balb-C mice, IP infection, IP peptide; for In Vivo VREF PD50: Table 13; for protection of mice from VREF infection: single bolus IP dose of appropriate amount, 45-60 min after infection
# Description: Vancomycin resistant Enterococcus faecium (VREF) bacteria (ATCC 51575) were grown at 37° C. in 60 mL of Brain Heart Infusion medium (BHI, Difco Laboratories) with agitation for 16 hours to a stationary phase. Cells were collected by centrifugation, washed twice with saline solution and resuspended in 6 mL of saline to a theoretical O.D.650 of 9-10 (determined by taking OD.650 of 10-20 fold diluted samples and correlating it to the original concentration). This suspension was diluted 15 times in a sterilized 5% mucin (Difco) in saline to a concentration of 5-7×10^8 cfu/ml (actual inoculum size was verified by colony counts on agar plates).
# Peptides of the invention were tested in mice to ascertain whether they would protect the mice against bacterial infection using procedures similar to those described in N. Frimodt-Moller et al., The Mouse Peritonitis/Sepsis Model, in Zak et al. (eds.) HANDBOOK OF ANIMAL MODELS OF INFECTION 127-37 (Academic Press 1999).
# Male Balb-C mice (6 weeks old, approximately 20 g) were used in the study. Staphylococcus aureus MRSA bacteria (ATCC 33591) were grown at 37° C. with agitation for 12 hours to a stationary phase. Cells were collected by centrifugation, washed twice with saline and resuspended to an O.D.650 of 1.4. This suspension was diluted ten times with saline and resuspended to a concentration of 3-5×10^7 cfu/ml. For each peptide five groups of eight mice per group were infected I.P. with 0.5 ml of the above Staphylococcus aureus MRSA preparation (lethal dose). Forty-five minutes to an hour after infection, each group was treated with a different dose of peptide and a control group received vehicle only. Mice were monitored for fourteen days; death was defined as the end point. Median protecting doses (PD50) were calculated following the Reed and Muench method. […] For IV and SQ models peptide was administered immediately after IP infection.
SMILES,E. coli MIC [1],B. cerius MIC [2],S. pneum. MIC [3],"rebound in bacterial viability ([4]; 1 μg/ml, 37° C.)","time after which effectively no cfu can be detected ([4]; 1 μg/ml, 37° C.)","surviving bacteria ([4]; 1 μg/ml, room temperature)",time to kill effectively all bacteria ([4]; 37° C.),killing of bacteria ([4]; room temperature),PD50 E. faecium VREF infection [5],PD50 VREF [5],In Vivo VREF PD50 [5],protection of mice from VREF infection [5]
"CC(C)C[C@H]1NC(=O)[C@H](Cc2c[nH]c3ccccc23)NC(=O)[C@@H](CCCCN)NC(=O)[C@H](CO)NC(=O)[C@@H](CCCCN)NC(=O)[C@H](Cc2c[nH]c3ccccc23)NC(=O)[C@@H](CC(C)C)NC(=O)[C@H](Cc2c[nH]c3ccccc23)NC1=O [SEQ ID NO:12, D-Lys-Ser-D-Lys-Trp-D-Leu-Trp-D-Leu-Trp] (cyclo([dK]S[dK]W[dL]W[dL]W))",40 µg/mL,< 3 µg/mL,10 µg/mL,rebound in bacterial viability,2 h,viable bacteria can be detected throughout the entire time-course,faster than an aliquot can be removed from the test culture,discernible numbers of surviving bacteria can be detected immediately,5 mg/kg,5,5 mg/kg,completely protect
"CC(C)C[C@H]1NC(=O)[C@H](Cc2c[nH]c3ccccc23)NC(=O)[C@@H](CCCCN)NC(=O)[C@H](CCCNC(=N)N)NC(=O)[C@@H](CCCNC(=N)N)NC(=O)[C@H](Cc2c[nH]c3ccccc23)NC(=O)[C@@H](CC(C)C)NC(=O)[C@H](Cc2c[nH]c3ccccc23)NC1=O [SEQ ID NO:18, cyclo-(D-Arg-Arg-D-Lys-Trp-D-Leu-Trp-D-Leu-Trp)] (cyclo([dR]R[dK]W[dL]W[dL]W))",15 µg/mL,5 µg/mL,5 µg/mL,–,–,–,within one hour,within one hour,7 mg/kg,7,7 mg/kg,completely protect
"CC(C)C[C@H]1NC(=O)[C@H](Cc2c[nH]c3ccccc23)NC(=O)[C@@H](CCCNC(=N)N)NC(=O)[C@H](CCC(N)=O)NC(=O)[C@@H](CCCCN)NC(=O)[C@H](Cc2c[nH]c3ccccc23)NC(=O)[C@@H](CC(C)C)NC(=O)[C@H](Cc2c[nH]c3ccccc23)NC1=O [SEQ ID NO:8, cyclo-(D-Lys-Gln-D-Arg-Trp-D-Leu-Trp-D-Leu-Trp)] (cyclo([dK]Q[dR]W[dL]W[dL]W))",80 µg/mL,–,–,–,–,–,–,–,–,–,–,–
